Measured values as given in patent US20230286948A1 (HUYABIO International, LLC, priority 2022, published 2023).

The molecules below were run against MLL1-WDR5 protein-protein interaction (Homo sapiens (Human), UniProt P61964) (assay: WDR5 TR-FRET assay (MLL1-WDR5 PPI inhibition)). Conditions: 5 nM WDR5 protein, 10 nM peptide, read-out: IC50 (nM), MLL1-WDR5 PPI inhibitory activity.
Type: binding
Description: WDR5 TR-FRET Assay Procedure: Stock compounds were transferred to the assay plate by Echo Liquid Handler. […] Stock compounds were incubated with WDR5 protein for 30 min at room temperature. Plates were covered, protected from light and incubated for 60 min at room temperature, after adding the peptide and Tb-Ab. EnVision Multimode Plate Reader (PerkinElmer) was used for the TR-FRET assay with excitation wavelength at 340 nm and emission wavelength at 495 and 520 nm. The ratio of the 520/495 wavelengths were used to assess the degree of the FRET signal. IC50 was calculated by fitting the inhibition data using XLfit software to sigmoidal dose-response model.

SMILES	IC50 [nM]
C[C@@H]1CN(c2ccc(-n3cc(C(=O)NCCCN4CCOCC4)nn3)cc2NC(=O)c2c[nH]c(=O)cc2C(F)(F)F)C[C@H](C)N1C [Example 2, N-(5-(4-((3-morpholinopropyl)carbamoyl)-1H-1,2,3-triazol-1-yl)-2-((3S,5R)-3,4,5-trimethylpiperazin-1-yl)phenyl)-6-oxo-4-(trifluoromethyl)-1,6-dihydropyridine-3-carboxamide]	16.7
CN1CCN(c2ccc(-n3cc(C(=O)NCCCN4CCOCC4)nn3)cc2NC(=O)c2cnc(Cl)cc2C(F)(F)F)CC1 [Example 3, 6-chloro-N-(2-(4-methylpiperazin-1-yl)-5-(4-((3-morpholinopropyl)carbamoyl)-1H-1,2,3-triazol-1-yl)phenyl)-4-(trifluoromethyl)nicotinamide]	> 10000
CN1CCN(c2ccc(-n3cc(C(=O)NCCCN4CCOCC4)nn3)cc2NC(=O)c2c[nH]c(=O)cc2C(F)(F)F)CC1 [Example 4]	51.3
C[C@@H]1CN(c2cc(F)c(-n3cc(C(=O)NCCCN4CCOCC4)nn3)cc2NC(=O)c2cnc(Cl)cc2C(F)(F)F)C[C@H](C)N1C [Example 5, 6-chloro-N-(4-fluoro-5-(4-((3-morpholinopropyl)carbamoyl)-1H-1,2,3-triazol-1-yl)-2-((3S,5R)-3,4,5-trimethylpiperazin-1-yl)phenyl)-4-(trifluoromethyl)nicotinamide]	7270
C[C@@H]1CN(c2cc(F)c(-n3cc(C(=O)NCCCN4CCOCC4)nn3)cc2NC(=O)c2c[nH]c(=O)cc2C(F)(F)F)C[C@H](C)N1C [Example 6, N-(4-fluoro-5-(4-((3-morpholinopropyl)carbamoyl)-1H-1,2,3-triazol-1-yl)-2-((3S,5R)-3,4,5-trimethylpiperazin-1-yl)phenyl)-6-oxo-4-(trifluoromethyl)-1,6-dihydropyridine-3-carboxamide]	7.23
CN1CCN(c2cc(F)c(-n3cc(C(=O)NCCCN4CCOCC4)nn3)cc2NC(=O)c2cnc(Cl)cc2C(F)(F)F)CC1 [Example 7, 6-chloro-N-(4-fluoro-2-(4-methylpiperazin-1-yl)-5-(4-((3-morpholinopropyl)carbamoyl)-1H-1,2,3-triazol-1-yl)phenyl)-4-(trifluoromethyl)nicotinamide]	> 10000
CN1CCN(c2cc(F)c(-n3cc(C(=O)NCCCN4CCOCC4)nn3)cc2NC(=O)c2c[nH]c(=O)cc2C(F)(F)F)CC1 [Example 8, N-(4-fluoro-2-(4-methylpiperazin-1-yl)-5-(4-((3-morpholinopropyl)carbamoyl)-1H-1,2,3-triazol-1-yl)phenyl)-6-oxo-4-(trifluoromethyl)-1,6-dihydropyridine-3-carboxamide]	21.2
C[C@H]1CN(c2ccc(-n3cc(C(=O)NCCCN4CCOCC4)nn3)cc2NC(=O)c2cnc(Cl)cc2C(F)(F)F)CCN1C [Example 9, (S)-6-chloro-N-(2-(3,4-dimethylpiperazin-1-yl)-5-(4-((3-morpholinopropyl)carbamoyl)-1H-1,2,3-triazol-1-yl)phenyl)-4-(trifluoromethyl)nicotinamide]	> 10000
C[C@H]1CN(c2ccc(-n3cc(C(=O)NCCCN4CCOCC4)nn3)cc2NC(=O)c2c[nH]c(=O)cc2C(F)(F)F)CCN1C [Example 10, (S)-N-(2-(3,4-dimethylpiperazin-1-yl)-5-(4-((3-morpholinopropyl)carbamoyl)-1H-1,2,3-triazol-1-yl)phenyl)-6-oxo-4-(trifluoromethyl)-1,6-dihydropyridine-3-carboxamide]	9.12
CN1CCN(c2ccc(-n3cc(C(=O)NCCCN4CCOCC4)nn3)cc2NC(=O)c2cnc(F)cc2C(F)(F)F)CC1 [Example 11, 6-fluoro-N-(2-(4-methylpiperazin-1-yl)-5-(4-((3-morpholinopropyl)carbamoyl)-1H-1,2,3-triazol-1-yl)phenyl)-4-(trifluoromethyl)nicotinamide]	4230
Cc1cc(C(F)(F)F)c(C(=O)Nc2cc(-n3cc(C(=O)NCCCN4CCOCC4)nn3)ccc2N2CCN(C)CC2)cn1 [Example 12, 6-methyl-N-(2-(4-methylpiperazin-1-yl)-5-(4-((3-morpholinopropyl)carbamoyl)-1H-1,2,3-triazol-1-yl)phenyl)-4-(trifluoromethyl)nicotinamide]	> 10000
CN1CCN(c2ccc(-n3cc(C(=O)NCCCN4CCOCC4)nn3)cc2NC(=O)c2cnc(C#N)cc2C(F)(F)F)CC1 [Example 13, 6-cyano-N-[2-(4-methylpiperazin-1-yl)-5-[4-(3-morpholinopropylcarbamoyl)triazol-1-yl]phenyl]-4-(trifluoromethyl)pyridine-3-carboxamide]	> 10000
CSc1cc(C(F)(F)F)c(C(=O)Nc2cc(-n3cc(C(=O)NCCCN4CCOCC4)nn3)ccc2N2CCN(C)CC2)cn1 [Example 14, N-[2-(4-methylpiperazin-1-yl)-5-[4-(3-morpholinopropylcarbamoyl)triazol-1-yl]phenyl]-6-methylsulfanyl-4-(trifluoromethyl)pyridine-3-carboxamide]	> 10000
CN1CCN(c2ccc(-n3cc(C(=O)NCCCN4CCOCC4)nn3)cc2NC(=O)c2cnc(S(C)(=O)=O)cc2C(F)(F)F)CC1 [Example 15, N-[2-(4-methylpiperazin-1-yl)-5-[4-(3-morpholinopropylcarbamoyl)triazol-1-yl]phenyl]-6-methylsulfonyl-4-(trifluoromethyl)pyridine-3-carboxamide]	> 10000
COc1cc(C(F)(F)F)c(C(=O)Nc2cc(-n3cc(C(=O)NCCCN4CCOCC4)nn3)ccc2N2CCN(C)CC2)cn1 [Example 16, 6-methoxy-N-(2-(4-methylpiperazin-1-yl)-5-(4-((3-morpholinopropyl)carbamoyl)-1H-1,2,3-triazol-1-yl)phenyl)-4-(trifluoromethyl)nicotinamide]	> 10000
CCOc1cc(C(F)(F)F)c(C(=O)Nc2cc(-n3cc(C(=O)NCCCN4CCOCC4)nn3)ccc2N2CCN(C)CC2)cn1 [Example 17, 6-ethoxy-N-(2-(4-methylpiperazin-1-yl)-5-(4-((3-morpholinopropyl)carbamoyl)-1H-1,2,3-triazol-1-yl)phenyl)-4-(trifluoromethyl)nicotinamide]	> 10000
CN1CCN(c2ccc(-n3cc(C(=O)NCCCN4CCOCC4)nn3)cc2NC(=O)c2cnc(N)cc2C(F)(F)F)CC1 [Example 18, 6-amino-N-(2-(4-methylpiperazin-1-yl)-5-(4-((3-morpholinopropyl)carbamoyl)-1H-1,2,3-triazol-1-yl)phenyl)-4-(trifluoromethyl)nicotinamide]	> 10000
CN1CCN(c2ccc(-n3cc(C(=O)NCCCN4CCOCC4)nn3)cc2NC(=O)c2cnc(Cl)cc2Cl)CC1 [Example 19, 4,6-dichloro-N-[2-(4-methylpiperazin-1-yl)-5-[4-(3-morpholinopropylcarbamoyl)triazol-1-yl]phenyl]pyridine-3-carboxamide]	> 10000
CN1CCN(c2ccc(-n3cc(C(=O)NCCCN4CCOCC4)nn3)cc2NC(=O)c2cnc(C(F)(F)F)cc2Cl)CC1 [Example 20, 4-chloro-N-(2-(4-methylpiperazin-1-yl)-5-(4-((3-morpholinopropyl)carbamoyl)-1H-1,2,3-triazol-1-yl)phenyl)-6-(trifluoromethyl)nicotinamide]	> 10000
Cc1c(Cl)ncc(C(=O)Nc2cc(-n3cc(C(=O)NCCCN4CCOCC4)nn3)ccc2N2CCN(C)CC2)c1Cl [Example 21, 4,6-dichloro-5-methyl-N-(2-(4-methylpiperazin-1-yl)-5-(4-((3-morpholinopropyl)carbamoyl)-1H-1,2,3-triazol-1-yl)phenyl)nicotinamide]	6570
